Data published in ChEMBL document CHEMBL3044752, “Isobutyl amides--potent compounds for controlling Diatraea saccharalis” (2009).

System: Diatraea saccharalis
Test: Insecticidal activity against fourth-instar Diatraea saccharalis assessed as larval mortality measured per insect after 24 hr exposure
Assay type: functional

## CC(C)CNC(=O)/C=C/CCc1ccc2c(c1)OCO2 [4,5-DIHYDROPIPERLONGUMININE]
  LD50: 92.83 µg
  LD90: 176.5 µg

## CCCCC/C=C/C=C/C(=O)NCC(C)C [PELLITORIN]
  LD50: 91.19 µg
  LD90: 184.56 µg
